Five molecules from EPA's ToxRefDB 2 can be followed below.

Structures are written as SMILES. A value given as a limit tells only on which side of the number the result lay.

In series [1] the test system is rat. To be noted: Developmental neurotoxicity study; sprague dawley; Oral; Gavage/Intubation; dose end: 91 PND; group: cannot be grouped; systemic / in life observation / body weight / offspring (pup) weight.
The test system of series [2] is mouse. To be noted: Subchronic oral toxicity in rodents, b6c3f1, Feed, dose end: 14 week.
The subject of series [3] is rat. To be noted: Carcinogenicity; fischer; Oral; Feed; dose end: 104 week; group: systemic; systemic / pathology microscopic / liver / hypertrophy + systemic / pathology microscopic / liver / vacuolization cytoplasmic + systemic / ….
Series [4] has as its system rat. To be noted: Subchronic oral toxicity in rodents, fischer, Feed, dose end: 14 week, group: systemic, systemic / organ weight / liver / absolute + systemic / organ weight / liver / relative to body weight + systemic / hematology / platelet / ….
Series [5] relates to mouse. Conditions: Carcinogenicity; b6c3f1; Oral; Feed; dose end: 105 week; group: systemic; systemic / pathology microscopic / liver / eosinophilic focus + systemic / pathology microscopic / liver / hypertrophy + systemic / ….
Series [6] concerns rat. To be noted: Combined chronic toxicity/carcinogenicity; fischer; Oral; Feed; dose end: 2 year; group: systemic; systemic / clinical chemistry / alkaline phosphatase (alp/alk) / alkaline phosphatase (alp/alk) + systemic / clinical chemistry / globulins….
Series [7] deals with rat. To be noted: Prenatal developmental toxicity study, sprague dawley, Oral, Gavage/Intubation, dose end: 19 GD.
Series [8] has as its system mouse. To be noted: Carcinogenicity, b6c3f1, Oral, Feed, dose end: 18 month, group: systemic.
In series [9] the test system is rat. Conditions: Multigenerational reproductive toxicity study, sprague dawley, Oral, Feed, dose end: 2 generation.
The test system of series [10] is mouse. Conditions: Carcinogenicity; b6c3f1; Oral; Feed; dose end: 80 week; group: systemic; systemic / pathology microscopic / liver / hepatocellular carcinoma + systemic / in life observation / clinical signs / alopecia + systemic….
Series [11] has as its system rat. To be noted: Carcinogenicity, other, Oral, Feed, dose end: 80 week, group: systemic.
Series [12] has as its system mouse. Conditions: Developmental neurotoxicity study; other; Oral; Feed; dose end: 77 PND; group: cannot be grouped; systemic / pathology microscopic / brain / [other] + systemic / pathology microscopic / brain / depletion.
The subject of series [13] is rat. Conditions: Developmental neurotoxicity study; sprague dawley; Oral; [Not Specified]; dose end: 87 PND; group: cannot be grouped; systemic / in life observation / clinical signs / abnormal posture.
Series [14] relates to rat. To be noted: Multigenerational reproductive toxicity study, sprague dawley, Oral, Feed, dose end: 3 generation.
Series [15] relates to rat. To be noted: Developmental neurotoxicity study, sprague dawley, Oral, Feed, dose end: 72 PND, group: cannot be grouped.
Series [16] concerns mouse. To be noted: Combined chronic toxicity/carcinogenicity; b6c3f1; Oral; Feed; dose end: 107 week; group: systemic; systemic / pathology microscopic / liver / hepatocyte, multinucleate.
Series [17] concerns rat. To be noted: Subchronic oral toxicity in rodents, other, Feed, dose end: 90 day, group: systemic.
In the next series the test system is rabbit. To be noted: Prenatal developmental toxicity study, new zealand white, Oral, Gavage/Intubation, dose end: 19 GD.
The subject of series [18] is rat. To be noted: Subchronic oral toxicity in rodents, wistar, Feed, dose end: 90 day, group: systemic, systemic / clinical chemistry / urea nitrogen / urea + systemic / hematology / blood clotting / blood clotting - clotting time + systemic / ….
The mark [19] stands for this setting: group: maternal, reproductive / reproductive performance / estrous cycle / length.
[20] abbreviates: group: systemic, systemic / in life observation / clinical signs / ataxia + systemic / in life observation / clinical signs / lethargy + systemic / in life ….
Where [21] appears, read: group: developmental, developmental / developmental malformation / bone / incomplete ossification + developmental / developmental malformation / brain / dilated ….
Where [22] appears, read: group: maternal, systemic / in life observation / clinical signs / piloerection + systemic / in life observation / clinical signs / salivation.
[23] abbreviates: group: maternal, systemic / in life observation / clinical signs / piloerection + systemic / in life observation / clinical signs / salivation + reproductive….
Where [24] appears, read: systemic / organ weight / liver / absolute + systemic / in life observation / body weight / body weight.
Setting [25] is: systemic / organ weight / liver / absolute + systemic / in life observation / body weight / body weight + systemic / organ weight / liver / ….
[26] abbreviates: group: offspring, developmental / offspring survival late / viability index / viability index + systemic / pathology microscopic / kidney / dilatation.
[27] abbreviates: group: offspring, developmental / offspring survival late / viability index / viability index + systemic / pathology microscopic / kidney / dilatation + ….
Where [28] appears, read: group: parental, systemic / pathology microscopic / kidney / dilatation + systemic / in life observation / body weight / body weight + systemic / in life ….
Setting [29] is: systemic / in life observation / body weight / body weight + systemic / in life observation / clinical signs / fur (altered appearance) + ….
Setting [30] is: systemic / in life observation / clinical signs / fur (altered appearance) + systemic / in life observation / clinical signs / palpable mass….
Setting [31] is: group: offspring, developmental / developmental landmark / vaginal opening / vaginal opening + systemic / in life observation / body weight / offspring (pup) ….
Where [32] appears, read: group: parental, systemic / in life observation / body weight / body weight + systemic / in life observation / body weight / body weight gain + systemic / ….
Setting [33] is: group: reproductive, reproductive / reproductive performance / implantations / implantations + reproductive / offspring survival early / litter size / litter ….
Setting [34] is: systemic / in life observation / body weight / body weight + systemic / in life observation / body weight / body weight gain + systemic / in….
Setting [35] is: systemic / in life observation / food consumption / food consumption.
Where [36] appears, read: systemic / in life observation / food consumption / food consumption + systemic / in life observation / body weight / body weight.
The mark [37] stands for this setting: group: developmental, systemic / in life observation / body weight / fetal weight.
The mark [38] stands for this setting: group: maternal, systemic / in life observation / mortality / mortality + reproductive / reproductive performance / aborted / aborted + systemic / in life ….

With `CCC1(c2ccccc2)C(=O)NCNC1=O` [Primidone], the LEL in the series with rat [1] was 40 mg/kg/day; with mouse [2] (setting [19]) it was 220 mg/kg/day; in the series on mouse [2] (group: systemic, systemic / organ weight / liver / absolute + systemic / organ weight / liver / relative to body weight + systemic / pathology microscopic / …), 100 mg/kg/day; with rat [3], 25 mg/kg/day; in the series with rat [4], 20 mg/kg/day; in the series with mouse [5] it was 25 mg/kg/day. Moreover, the LOAEL (as a rule, the lowest dose or exposure tested at which an adverse effect was seen) in the series with rat [1] is more than 80 mg/kg/day; in the series on mouse [2] (setting [19]) it was more than 1100 mg/kg/day; with mouse [2] (setting [20]), more than 1000 mg/kg/day; with rat [3], 25 mg/kg/day; in the series on rat [4], more than 400 mg/kg/day; in the series on mouse [5] it was 25 mg/kg/day. The NEL in the series on rat [1] was less than 40 mg/kg/day; with mouse [2] (setting [19]) it was 120 mg/kg/day; with mouse [2] (setting [20]), 50 mg/kg/day; in the series with rat [3] it was less than 25 mg/kg/day; in the series with rat [4] it was less than 20 mg/kg/day; with mouse [5], less than 25 mg/kg/day. The NOAEL (usually the highest dose or exposure tested at which no adverse effect was seen) in the series on rat [1] was not below 80 mg/kg/day; in the series with mouse [2] (setting [19]), not below 1100 mg/kg/day; in the series with mouse [2] (setting [20]), not below 1000 mg/kg/day; in the series on rat [3], less than 25 mg/kg/day; in the series on rat [4] it was not below 400 mg/kg/day; with mouse [5] it was less than 25 mg/kg/day.
Turning to `O=C([O-])c1cc(Oc2ccc(C(F)(F)F)cc2Cl)ccc1[N+](=O)[O-].[Na+]` [Acifluorfen-sodium], the LEL came to 125 mg/kg/day with rat [6]; 90 mg/kg/day in the series on rat [7] (setting [21]); 90 mg/kg/day in the series with rat [7] (setting [22]); 119 mg/kg/day in the series with mouse [8] (setting [25]); 50 mg/kg/day with rat [9] (setting [26]); 50 mg/kg/day in the series with rat [9] (group: parental, systemic / pathology microscopic / kidney / dilatation + systemic / in life observation / body weight / body weight gain). The lowest observed adverse effect level (LOAEL) in the series on rat [6] turned out to be 125 mg/kg/day; in the series on rat [7] (setting [21]) it was 90 mg/kg/day; in the series with rat [7] (setting [22]), 90 mg/kg/day; in the series with mouse [8] (setting [24]), 119 mg/kg/day; in the series on rat [9] (setting [26]) it was 50 mg/kg/day; in the series on rat [9] (group: parental, systemic / pathology microscopic / kidney / dilatation), 50 mg/kg/day. In addition, the NEL in the series on rat [6] was 25 mg/kg/day; in the series on rat [7] (setting [21]) it was 20 mg/kg/day; in the series on rat [7] (setting [23]), 20 mg/kg/day; in the series with mouse [8] (setting [25]) it was less than 119 mg/kg/day; in the series with rat [9] (setting [27]), 2.5 mg/kg/day; in the series on rat [9] (setting [28]), 2.5 mg/kg/day. In addition, the no observed adverse effect level (NOAEL) with rat [6] was 25 mg/kg/day; in the series with rat [7] (setting [21]), 20 mg/kg/day; with rat [7] (setting [23]) it was 20 mg/kg/day; with mouse [8] (setting [24]), less than 119 mg/kg/day; in the series with rat [9] (setting [27]) it was 2.5 mg/kg/day; in the series with rat [9] (setting [28]), 2.5 mg/kg/day.
`ClC1=C(Cl)[C@]2(Cl)C3C(Cl)C(Cl)CC3[C@@]1(Cl)C2(Cl)Cl` (stereo not given in full) [Chlordane]: in the series with mouse [10], the LEL was 4.49 mg/kg/day, the lowest observed adverse effect level (LOAEL) was more than 8.43 mg/kg/day, the NEL was less than 4.49 mg/kg/day and the no observed adverse effect level (NOAEL) is not below 8.43 mg/kg/day. Moreover, in the series with rat [11] (setting [29]), the LOAEL was more than 12.1 mg/kg/day and the NOAEL was not below 12.1 mg/kg/day. Further, in the series on rat [11] (setting [30]), the LEL worked out at 6.04 mg/kg/day and the NEL was less than 6.04 mg/kg/day.
In the case of `CC(C)(c1ccc(O)cc1)c1ccc(O)cc1` [Bisphenol A], the LEL in the series with mouse [12] was 0.03 mg/kg/day; with rat [13], 0.04 mg/kg/day; with rat [14] (setting [31]), 500 mg/kg/day; in the series with rat [14] (group: parental, systemic / in life observation / body weight / body weight + systemic / in life observation / body weight / body weight gain) it was 50 mg/kg/day; in the series with rat [14] (setting [33]), 500 mg/kg/day; with rat [15] (setting [34]), 56.4 mg/kg/day. Moreover, the LEL in the series with mouse [16] is 150 mg/kg/day; with rat [17] (setting [35]) it was 5 mg/kg/day. Further, the LOAEL with mouse [12] was more than 2000 mg/kg/day; in the series with rat [13], more than 0.4 mg/kg/day; with rat [14] (setting [31]) it was more than 500 mg/kg/day; in the series on rat [14] (setting [32]), more than 500 mg/kg/day; in the series with rat [14] (setting [33]), more than 500 mg/kg/day; in the series on rat [15] (systemic / in life observation / body weight / body weight + systemic / in life observation / body weight / body weight gain), 56.4 mg/kg/day. Moreover, the LOAEL was more than 750 mg/kg/day in the series with mouse [16] and more than 25 mg/kg/day in the series on rat [17] (setting [36]). Also, the NEL in the series with mouse [12] is less than 0.03 mg/kg/day; in the series on rat [13], less than 0.04 mg/kg/day; with rat [14] (setting [31]), 50 mg/kg/day; with rat [14] (setting [32]) it was 5 mg/kg/day; in the series with rat [14] (group: reproductive, reproductive / reproductive performance / implantations / implantations), 50 mg/kg/day; with rat [15] (setting [34]), 5.85 mg/kg/day. Also, the NEL in the series on mouse [16] was less than 150 mg/kg/day; in the series on rat [17] (setting [35]), less than 5 mg/kg/day. Also, the no observed adverse effect level (NOAEL) in the series with mouse [12] is not below 2000 mg/kg/day; with rat [13], not below 0.4 mg/kg/day; in the series with rat [14] (setting [31]), not below 500 mg/kg/day; with rat [14] (setting [32]), not below 500 mg/kg/day; with rat [14] (setting [33]) it was not below 500 mg/kg/day; with rat [15] (setting [34]) it was 5.85 mg/kg/day. Also, the NOAEL in the series on mouse [16] is not below 750 mg/kg/day; in the series with rat [17] (setting [36]), not below 25 mg/kg/day.
As for `NC(=O)c1c(Cl)cccc1Cl` [2,6-Dichlorobenzamide], the LEL in the series with rabbit (setting [37]) came out at 90 mg/kg/day; in the series with rabbit (group: maternal, systemic / in life observation / mortality / mortality + systemic / in life observation / clinical signs / moribundity) it was 30 mg/kg/day; in the series with rat [18], 49 mg/kg/day. Also, the LOAEL came out at 90 mg/kg/day in the series with rabbit (setting [37]); 30 mg/kg/day in the series on rabbit (group: maternal, systemic / in life observation / mortality / mortality); 49 mg/kg/day in the series with rat [18]. Besides, the values for the NEL with rabbit (setting [37]), in the series on rabbit (setting [38]) and in the series on rat [18] were 30 mg/kg/day, 10 mg/kg/day and 14 mg/kg/day, respectively. Further, the NOAEL in the series with rabbit (setting [37]) was 30 mg/kg/day; in the series on rabbit (setting [38]), 10 mg/kg/day; in the series on rat [18], 14 mg/kg/day.
